Consider 14 compounds from patent publication US8361988B2, “Nucleoside and nucleotide analogues with quaternary carbon centers and methods of use” (Institut de Recherches Cliniques de Montreal, priority 2007, dated 2013).

Bounds are passed on as bounds.

As usually defined, the CC50 is the concentration that lowers cell viability or growth by half. Read a high CC50 as better tolerance by the cells. As a reminder, the EC50 is the concentration at which the effect is half-maximal. Lower therefore signals greater potency.

The nature of series [1]: MTT cell proliferation assay, PFSK-1. The series is classed as cell-based. As to conditions: human, PFSK-1 cells, concentration causing 50% cell death of initial cell count over 24 hours, 1% DMSO. The protocol: (§1) The antitumor activities of the compounds of the invention were evaluated by a cellular proliferation assay. […] The cleavage reaction form a purple formazan crystals which is largely impermeable to cell membranes resulting in its accumulation within healthy cells. Solubilisation of the cells by addition of a detergent liberates and solubilizes the formazan crystals. The number of surviving cells is directly proportional to the level of the formazan product created. The color can then be quantified spectrophotometrically. The production of purple formazan in cells treated with a compound is measured relative to the production in control cells, and dose-response curves can be generated. This assay measures the cell proliferation rate and conversely, when metabolic events lead to apoptosis or necrosis, the reduction in cell viability, thus also allowing the evaluation of the cytotoxicity of the analogues synthesized in the laboratory.
(§2) For Tables 3 and 4, the assays were performed with 1% DMSO. The abbreviation “n.d.” means “not determined.” The values EC50, CC50, and SI have the following definitions.
(§3) Cell growth equals total cell count without any inhibitor after 72 hours minus initial cell count.
(§4) SI: Selectivity Index is the ratio CC50/EC50.

The subject of series [2] is PFSK-1. Kind of series: MTT cell proliferation assay, PFSK-1. The series is classed as cell-based. As to conditions: Homo sapiens, PFSK-1, 72 h, concentration reducing cell growth by 50% after 72 hours, 1% DMSO. The protocol:
as §1, §2, §3, §4

Series [3] is described as follows: MTT cell proliferation assay, ZR-75-1. The series is classed as cell-based. As to conditions: human, ZR-75-1 cells, concentration causing 50% cell death of initial cell count over 24 hours, 1% DMSO. The protocol:
(§5) The antitumor activities of the compounds of the invention were evaluated by a cellular proliferation assay. The MTT [3-(4,5-dimethylthiazol-2-yl)-2,5-diphenyltetrazolium bromide] cell proliferation assay, first described by Mosmann (Mosmann T., “Rapid colorimetric assay for cellular growth and survival: application to proliferation and cytotoxicity assays,” J. Immunol. Methods 1983 Dec. 16; 65(1-2):55-63, and incorporated by reference in its entirety) is based on the ability of active mitochondrial reductase enzymes from viable cells to cleave the tetrazolium rings of the pale yellow MTT. The cleavage reaction form a purple formazan crystals which is largely impermeable to cell membranes resulting in its accumulation within healthy cells. Solubilisation of the cells by addition of a detergent liberates and solubilizes the formazan crystals. The number of surviving cells is directly proportional to the level of the formazan product created. The color can then be quantified spectrophotometrically. The production of purple formazan in cells treated with a compound is measured relative to the production in control cells, and dose-response curves can be generated. This assay measures the cell proliferation rate and conversely, when metabolic events lead to apoptosis or necrosis, the reduction in cell viability, thus also allowing the evaluation of the cytotoxicity of the analogues synthesized in the laboratory.
as §2
(§6) Cell growth equals total cell count without any inhibitor after 72 hours minus initial cell count. Total cell counts after 72 hrs of growth range from 230 to 346% of initial cell counts depending on the cell line.
(§7) Total cell counts after 24 hrs of growth range from 103 to 109% of initial cell counts depending on the cell line.
as §4
On the technique in general: Tetrazolium assays rely on reduction of a dye to a coloured formazan, in cell work by metabolically active cells.

In series [4] the test system is ZR-75-1. Kind of series: MTT cell proliferation assay, ZR-75-1. As to conditions: Homo sapiens, ZR-75-1, 72 h, concentration reducing cell growth by 50% after 72 hours, 1% DMSO. The series is classed as cell-based. The protocol:
as §5, §2, §6, §7, §4

The target in series [5] is T1, Drosophila melanogaster dNK (Drosophila melanogaster, UniProt Q9XZT6).
T1 sequence (Q9XZT6 1-250): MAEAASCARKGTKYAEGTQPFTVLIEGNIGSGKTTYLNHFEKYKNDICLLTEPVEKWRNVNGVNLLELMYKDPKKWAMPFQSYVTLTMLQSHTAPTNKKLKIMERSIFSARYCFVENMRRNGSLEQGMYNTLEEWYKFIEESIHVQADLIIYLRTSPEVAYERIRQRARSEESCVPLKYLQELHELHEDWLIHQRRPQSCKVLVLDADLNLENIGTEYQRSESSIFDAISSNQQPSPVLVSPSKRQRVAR
Kind of series: Phosphorylation assay (spectrophotometric coupled-enzyme), D. melanogaster dNK. The series is classed as biochemical. As to conditions: substrate at 100 μM, 37° C., 1 mM ATP, triplicate. The protocol: Compounds of the invention were also tested in a phosphorylation assay using three deoxynucleoside kinases. […] The compounds were at substrate concentration of 100 μM.
Kinetic assay. […] Briefly, the individual nucleosides at 100 μM were prepared in reaction buffer containing 50 mM Tris-HCl (pH 7.5), 0.1 M KCl, 5 mM MgCl2, 1 mM DTT, 1 mM ATP, 0.21 mM phosphoenolpyruvate, 0.18 mM NADH, and 2 units/ml pyruvate kinase and 2 units/ml lactate dehydrogenase (Roche Biochemicals, Indianapolis, Ind.). Assays were performed at 37° C. by measuring the absorbance change at 340 nm. The enzyme amount was adjusted to limit NADH turnover to 10% over the time of the experiment. All experiments were performed in triplicate.

Series [6] concerns the target Thermotoga maritima thymidine kinase (Thermotoga maritima, UniProt Q9WYN2). Kind of series: Phosphorylation assay (spectrophotometric coupled-enzyme), T. maritima TK. As to conditions: substrate at 100 μM, 37° C., 1 mM ATP, triplicate. Type of series: biochemical. The protocol:
Compounds of the invention were also tested in a phosphorylation assay using three deoxynucleoside kinases. The kinases include human dCK, which is responsible for the activation of numerous nucleoside analog prodrugs; Drosophila melanogaster dNK, which is the fastest known kinases with the broadest substrate specificity profile; and Thermotoga maritima thymidine kinase, which is a good surrogate for human thymidine kinase 1, a member of the distinct type II kinase subfamily. The compounds were at substrate concentration of 100 μM.
Kinetic assay. Substrate phosphorylation was determined using a spectrophotometric coupled-enzyme assay (Munch-Petersen et al. (2000) J. Biol. Chem. vol. 275p. 66′73-66′79; Schelling et al. (2001) Anal. Biochem vol. 295 p. 82-8′7). Briefly, the individual nucleosides at 100 μM were prepared in reaction buffer containing 50 mM Tris-HCl (pH 7.5), 0.1 M KCl, 5 mM MgCl2, 1 mM DTT, 1 mM ATP, 0.21 mM phosphoenolpyruvate, 0.18 mM NADH, and 2 units/ml pyruvate kinase and 2 units/ml lactate dehydrogenase (Roche Biochemicals, Indianapolis, Ind.). Assays were performed at 37° C. by measuring the absorbance change at 340 nm. The enzyme amount was adjusted to limit NADH turnover to 10% over the time of the experiment. All experiments were performed in triplicate.

Series [7] can be described thus: in vitro. As to conditions: human, NCI H1395 cells.
Series [8] is described as follows: in vitro. As to conditions: human, NCI H2052 cells.
Series [9] in a line: in vitro. As to conditions: human, MOLT-4 cells.

Thermotoga maritima thymidine kinase, sequence (Q9WYN2 whole entry): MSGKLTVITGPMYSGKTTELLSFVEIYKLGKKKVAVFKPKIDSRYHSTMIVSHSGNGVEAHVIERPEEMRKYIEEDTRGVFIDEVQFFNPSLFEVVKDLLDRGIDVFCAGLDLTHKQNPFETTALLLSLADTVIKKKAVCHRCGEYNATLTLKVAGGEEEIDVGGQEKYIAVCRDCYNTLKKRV

With `COC(=O)C1(C)C[C@@H](n2cc(C)c(=O)[nH]c2=O)O[C@@H]1CO` (mixture of isomers) [LCB-1001], the CC50 at 24 h was above 500 µM in series [1], above 500 µM in series [3], above 500 µM in series [7] and 295 µM in series [8]. For the same compound, the EC50 in series [2] and in [4] was above 500 µM throughout. Further, the “D. melanogaster dNK substrate phosphorylation” value in series [5] is recorded as <0.1 10^6 μmol/min mg. In series [6], the “T. maritima TK substrate phosphorylation” value is listed as <1 10^−3 μmol/min mg.
For `COC(=O)C1(C)C[C@@H](n2ccc(=O)[nH]c2=O)O[C@@H]1CO` (mixture of isomers) [LCB-1002], the CC50 at 24 h is above 500 µM in [1], above 500 µM in series [3], 493 µM in [7] and 423 µM in [8]. Also, the EC50 in series [2] and in series [4] was above 500 µM in each case. Moreover, the “D. melanogaster dNK substrate phosphorylation” value in series [5] is given as <0.1 10^6 μmol/min mg. For the same compound, in [6], the “T. maritima TK substrate phosphorylation” value is recorded as 2.2 10^−3 μmol/min mg.
In the case of `Cc1cn([C@@H]2CC(C)(CO)[C@@H](CO)O2)c(=O)[nH]c1=O` (mixture of isomers) [LCB-1004-2], the “D. melanogaster dNK substrate phosphorylation” value in [5] is given as 3.7 10^6 μmol/min mg. The “T. maritima TK substrate phosphorylation” value in series [6] is given as <1 10^−3 μmol/min mg.
Take `Cc1cn([C@@H]2CC(C)(CO)[C@@H](CO)O2)c(=O)[nH]c1=O` (mixture of isomers) [LCB-1004]: the CC50 at 24 h in series [1], in [3], in [7] and in series [8] was above 500 µM throughout. For the same compound, the EC50 in series [2] is above 500 µM; in series [4] it was 420 µM. For the same compound, the “D. melanogaster dNK substrate phosphorylation” value in [5] (listed as LCB-1004-1) is 4.2 10^6 μmol/min mg. In series [6] (listed as LCB-1004-1), the “T. maritima TK substrate phosphorylation” value is recorded as 4.1 10^−3 μmol/min mg.
Take `COC(=O)C1(C)C[C@H](n2ccc(=O)[nH]c2=O)O[C@@H]1CO` (mixture of isomers) [LCB-1005]: the CC50 at 24 h in series [1], in series [3], in series [7] and in series [8] was above 500 µM throughout. Also, the EC50 in series [2] and in series [4] was above 500 µM throughout. Besides, the “D. melanogaster dNK substrate phosphorylation” value in series [5] is <0.1 10^6 μmol/min mg. In [6], the “T. maritima TK substrate phosphorylation” value was <1 10^−3 μmol/min mg.
`CC1(CO)C[C@H](n2ccc(=O)[nH]c2=O)O[C@@H]1CO` (mixture of isomers) [LCB-1006]: the CC50 at 24 h in [1], in series [3], in series [7] and in series [8] was above 500 µM throughout. For the same compound, the EC50 in series [2] and in series [4] was above 500 µM throughout. Also, the “D. melanogaster dNK substrate phosphorylation” value in [5] is reported as 0.22 10^6 μmol/min mg. Further, in [6], the “T. maritima TK substrate phosphorylation” value is reported as 2.7 10^−3 μmol/min mg.
`Cc1cn([C@H]2CC(C)(CO)[C@@H](CO)O2)c(=O)[nH]c1=O` (mixture of isomers) [LCB-1007-2]: in series [5], the “D. melanogaster dNK substrate phosphorylation” value was 0.74 10^6 μmol/min mg. Also, the “T. maritima TK substrate phosphorylation” value in series [6] is given as 2.2 10^−3 μmol/min mg.
Regarding `Cc1cn([C@H]2CC(C)(CO)[C@@H](CO)O2)c(=O)[nH]c1=O` (mixture of isomers) [LCB-1007], the CC50 at 24 h in series [1], in series [3], in series [7] and in series [8] was above 500 µM throughout. Also, the EC50 was above 500 µM in series [2] and 460 µM in series [4]. For the same compound, the “D. melanogaster dNK substrate phosphorylation” value in series [5] (listed as LCB-1007-1) is recorded as 0.84 10^6 μmol/min mg. In addition, the “T. maritima TK substrate phosphorylation” value in series [6] was 2.2 10^−3 μmol/min mg.
With `CC1(CO)C[C@@H](n2ccc(=O)[nH]c2=O)O[C@@H]1CO` (mixture of isomers) [LCB-1008], the CC50 at 24 h in [1], in series [3], in series [7] and in [8] was above 500 µM throughout. Further, the EC50 in series [2] and in series [4] was above 500 µM in each case. Besides, in series [5], the “D. melanogaster dNK substrate phosphorylation” value is recorded as 0.36 10^6 μmol/min mg. Also, the “T. maritima TK substrate phosphorylation” value in [6] is reported as <1 10^−3 μmol/min mg.
For `COC(=O)C1(C)C[C@H](n2cc(C)c(=O)[nH]c2=O)O[C@@H]1CO` (mixture of isomers) [LCB-1009-2], the “D. melanogaster dNK substrate phosphorylation” value in series [5] is recorded as 3.44 10^6 μmol/min mg. Further, the “T. maritima TK substrate phosphorylation” value in series [6] is 4.9 10^−3 μmol/min mg.
For `COC(=O)C1(C)CC(n2cc(C)c(=O)[nH]c2=O)OC1CO` (racemic) [LCB-1010-2, (±) methyl 2-(hydroxymethyl)-3-methyl-5-(5-methyl-2,4-dioxo-3,4-dihydropyrimidin-1(2H)-yl)tetrahydrofuran-3-carboxylate], in that order: 2.13 10^6 μmol/min mg and 5.6 10^−3 μmol/min mg.
With `COC(=O)C1(C)C[C@H](n2cc(F)c(=O)[nH]c2=O)O[C@@H]1CO` (mixture of isomers) [LCB-1023, 5-(5-Fluoro-2,4-dioxo-3,4-dihydro-2H-pyrimidin-1-yl)-2-hydroxymethyl-3-methyl-tetrahydro-furan-3-carhoxylic acid methyl ester], the “D. melanogaster dNK substrate phosphorylation” value in series [5] (listed as LCB-1023-1) is on record as 0.33 10^6 μmol/min mg. Also, in series [6] (listed as LCB-1023-1), the “T. maritima TK substrate phosphorylation” value is listed as 2.1 10^−3 μmol/min mg.
The compound `Cc1cn([C@H]2CC(C)(CO)[C@@H](CO)O2)c(=O)[nH]c1=O` (mixture of isomers) [LCB-1032, (±) 1-(-4,5-bis(hydroxymethyl)-4-methyltetrahydrofuran-2-yl)-5-methylpyrimidine-2,4(1H,3H)-dione] gave a CC50 at 24 h in series [9] above 500 µM.
Take `Cc1cn([C@H]2C[C@H](O)[C@@H](CO)O2)c(=O)[nH]c1=O` [Thymidine, reference compound]: the “T. maritima TK substrate phosphorylation” value in series [6] is on record as 830 10^−3 μmol/min mg.
